One test addresses human orexin 1 receptor (Homo sapiens (Human), UniProt O43613). Kind of test: Human orexin 1 receptor radioligand binding ([3H]-SB674042 competition, CHO cells). Conditions: [3H]-SB674042 competition binding, read-out: hOX1 Ki.
For a further test, the target named is human orexin 2 receptor (Homo sapiens (Human), UniProt O43614). Put plainly: Human orexin 2 receptor radioligand binding ([3H]-EMPA competition, HEK293 cells). Conditions: [3H]-EMPA competition binding, read-out: hOX2 Ki.
Sequence of human orexin 2 receptor (O43614 whole entry): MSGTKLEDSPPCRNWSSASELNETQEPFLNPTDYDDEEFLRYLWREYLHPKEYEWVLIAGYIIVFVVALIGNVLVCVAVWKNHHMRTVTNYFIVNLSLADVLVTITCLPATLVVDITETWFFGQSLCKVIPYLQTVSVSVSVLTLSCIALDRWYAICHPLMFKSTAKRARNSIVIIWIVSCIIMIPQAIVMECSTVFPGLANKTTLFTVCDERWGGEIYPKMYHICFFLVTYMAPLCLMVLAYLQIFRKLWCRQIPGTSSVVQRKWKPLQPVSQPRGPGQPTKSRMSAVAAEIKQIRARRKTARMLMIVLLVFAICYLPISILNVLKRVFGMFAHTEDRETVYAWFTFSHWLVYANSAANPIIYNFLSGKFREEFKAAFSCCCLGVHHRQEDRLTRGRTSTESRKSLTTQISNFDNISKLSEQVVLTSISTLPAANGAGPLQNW

A word on the Ki: it is a dissociation constant, usually derived from enzyme kinetics or from competition with a known ligand.

Structures are written as SMILES.

Sequence of human orexin 1 receptor (O43613 whole entry): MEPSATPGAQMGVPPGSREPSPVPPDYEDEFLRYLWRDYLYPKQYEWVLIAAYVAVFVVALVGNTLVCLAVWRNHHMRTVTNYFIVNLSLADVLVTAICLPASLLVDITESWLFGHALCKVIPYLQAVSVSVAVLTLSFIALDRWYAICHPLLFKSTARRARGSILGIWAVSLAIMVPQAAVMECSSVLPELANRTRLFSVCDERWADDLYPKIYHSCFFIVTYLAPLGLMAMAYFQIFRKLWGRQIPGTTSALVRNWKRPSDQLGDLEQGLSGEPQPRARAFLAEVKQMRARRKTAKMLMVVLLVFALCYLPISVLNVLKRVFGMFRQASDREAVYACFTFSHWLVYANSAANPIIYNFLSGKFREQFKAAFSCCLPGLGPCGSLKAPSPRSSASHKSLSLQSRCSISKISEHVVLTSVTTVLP

For `Cc1ccc(-n2nccn2)c(C(=O)N2C3CCC2C(Nc2ccc(C(F)(F)F)cn2)C3)n1` (racemic) [Example 187, (±)-(6-methyl-3-(2H-1,2,3-triazol-2-yl)pyridin-2-yl)(2-((5-(trifluoromethyl)pyridin-2-yl)amino)-7-azabicyclo[2.2.1]heptan-7-yl)methanone], the figures for the Ki on human orexin 1 receptor and at human orexin 2 receptor were 0.048 µM and 0.62 µM, respectively.

Turning to `Cc1ccc(-n2nccn2)c(C(=O)N2[C@H]3CC[C@@H]2[C@@H](COc2ccc(F)cn2)C3)c1` (single isomer, unassigned) [Example 10B], on human orexin 2 receptor, the inhibitory constant (Ki) was 5.15 µM.
